# According to US20240059700A1, “NOVEL DIACYLGLYCERIDE O-ACYLTRANSFERASE 2 INHIBITORS” (Merck Sharp & Dohme LLC, priority 2020, published 2024):
# Biological target: human DGAT2 (hDGAT2) (Homo sapiens (Human), UniProt Q96PD7)
# Experiment: DGAT2 Enzymatic Activity Assay
# Assay type: biochemical
# Settings: membrane prep of Sf-9 insect cells expressing hDGAT2; 13C18-triolein product by LC/MS/MS
# Procedure: Sf-9 insect cells were maintained in Grace's insect cell culture medium with 10% heated-inactivated fetal bovine serum, 1% Pluronic F-68 and 0.14 μg/ml Kanamycine sulfate at 27° C. in a shaker incubator. After infection with untagged baculovirus expressing human DGAT2 (hDGAT2) at multiplicity of infection (MOI) 3 for 48 hours, cells were harvested. Cell pellets were suspended in buffer containing 10 mM Tris-HCl pH 7.5, 1 mM EDTA, 250 mM sucrose and Complete Protease Inhibitor Cocktail (Sigma Aldrich), and sonicated on ice. Cell debris were removed by centrifugation at 2000×g for 15 minutes. Membrane fractions were isolated by ultracentrifugation (100,000×g), resuspended in the same buffer, and frozen (−80° C.) for later use. The protein concentration was determined with the Pierce™ BCA Protein Assay Kit (Thermo Fisher Scientific). Expression of protein levels was analyzed by immunoblotting with rabbit anti-DGAT2 antibody (Abcam, ab102831) and donkey anti-rabbit IgG H&L Alexa Fluor® 647 (Abcam, ab150075) followed by detection using Typhoon FLA9000 (GE Healthcare).
# LC/MS/MS analyses were performed using Thermal Fisher's LX4-TSQ Vantage system. This system consists of an Agilent binary high-performance liquid chromatography (HPLC) pumps and a TSQ Vantage triple quadrupole MS/MS instrument. For each sample, 2 μL samples from the top organic layer of in-plate liquid-liquid extraction were injected onto a Thermo Betabasic C4 column (2.1 mm×20 mm, 5 μm particle size). The samples were then eluted using the following conditions; mobile phase: Isopropanol: acetonitrile/10 mM ammonium formate=50/35/15 (v/v/v), flow rate: 0.8 mL/min, temperature: 25° C. Data was acquired in positive mode using a heated electrospray ionization (HESI) interface. The operational parameters for the TSQ Vantage MS/MS instrument were a spray voltage of 3000 V, capillary temperature of 280° C., vaporizer temperature 400° C., sheath gas 45 arbitrary unit, Aux gas 10 arbitrary units, S-lens 165 and collision gas 1.0 mTorr. […] (SRM) chromatograms of ^13C18-triolein (Q1: 920.8>Q3:621.3) and internal standard ^13C21-triolein (Q1: 923.8>Q3:617.3) were collected for 33 sec. The peak area was integrated by Xcalibur Quan software. The ratio between the ^13C18 triolein generated in the reaction and spiked in internal standard ^13C21-triolein was used to generate percentage inhibition and IC50 values. Compound percentage inhibition was calculated by the following formula: Inhibition %=1−[(compound response−low control)/(high control−low control)]×100%. Potent compounds were titrated and IC50 were calculated by 4 parameter sigmoidal curve fitting formula.
# DGAT2 activity was determined by measuring the amount of enzymatic product ^13C18-triolein (^13C-1,2,3-Tri(cis-9-octadecenoyl)glycerol) using the membrane prep mentioned above. The assay was carried out in ABgene 384-well assay plates in a final volume of 25 μL at rt. The assay mixture contained the following: assay buffer (100 mM Tris·Cl, pH 7.0, 20 mM MgCl2, 5% ethanol), 25 μM of diolein, 5 μM of ^13C oleoyl-CoA and 8 ng/μL of DGAT2 membrane.
# Chain of human DGAT2 (hDGAT2) (Q96PD7 whole entry): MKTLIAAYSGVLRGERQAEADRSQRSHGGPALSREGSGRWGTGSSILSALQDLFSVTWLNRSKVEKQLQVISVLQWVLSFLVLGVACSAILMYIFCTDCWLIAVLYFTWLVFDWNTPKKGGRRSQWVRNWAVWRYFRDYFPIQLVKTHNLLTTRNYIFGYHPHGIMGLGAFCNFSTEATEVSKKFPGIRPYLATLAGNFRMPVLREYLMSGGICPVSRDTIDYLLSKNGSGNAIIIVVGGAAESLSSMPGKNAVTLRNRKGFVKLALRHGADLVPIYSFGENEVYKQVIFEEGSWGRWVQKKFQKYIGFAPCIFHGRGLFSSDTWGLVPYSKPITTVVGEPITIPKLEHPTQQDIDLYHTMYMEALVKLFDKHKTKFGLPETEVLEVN
row,SMILES,IC50 [µM]
1,"CCn1nc(-c2cccc(OC(F)F)c2)c2ncc(C(=O)NC3(C)CS(=O)(=O)C3)cc21 [Example 27, 3-(3-(difluoromethoxy)phenyl)-1-ethyl-N-(3-methyl-1,1-dioxidothietan-3-yl)-1H-pyrazolo[4,3-b]pyridine-6-carboxamide]",0.111
2,"CC(C)Cn1nc(-c2cccc(OC(F)F)c2)c2ncc(C(=O)NC3(C)CS(=O)(=O)C3)cc21 [Example 28, 3-(3-(difluoromethoxy)phenyl)-1-isobutyl-N-(3-methyl-1,1-dioxidothietan-3-yl)-1H-pyrazolo[4,3-b]pyridine-6-carboxamide]",0.029
3,"CC(C)(C)Cn1nc(-c2cccc(OC(F)F)c2)c2ncc(C(=O)NC3(C)CS(=O)(=O)C3)cc21 [Example 29, 3-(3-(difluoromethoxy)phenyl)-N-(3-methyl-1,1-dioxidothietan-3-yl)-1-neopentyl-1H-pyrazolo[4,3-b]pyridine-6-carboxamide]",0.388
4,"CC1(NC(=O)c2cnc3c(-c4cccc(OC(F)F)c4)nn(C4CC4)c3c2)CS(=O)(=O)C1 [Example 30, 1-cyclopropyl-3-(3-(difluoromethoxy)phenyl)-N-(3-methyl-1,1-dioxidothietan-3-yl)-1H-pyrazolo[4,3-b]pyridine-6-carboxamide]",0.099
5,"CC(C)n1nc(-c2cccc(OC(F)F)c2)c2ncc(C(=O)N[C@@]3(C)CCS(=O)(=O)C3)cc21 [Example 31, (S)-3-(3-(difluoromethoxy)phenyl)-1-isopropyl-N-(3-methyl-1,1-dioxidotetrahydrothiophen-3-yl)-1H-pyrazolo[4,3-b]pyridine-6-carboxamide]",0.0072
6,"CC(C)n1nc(-c2cccc(OC(F)F)c2)c2c(F)cc(C(=O)NC3(C)CS(=O)(=O)C3)cc21 [Example 33, 3-(3-(difluoromethoxy)phenyl)-4-fluoro-1-isopropyl-N-(3-methyl-1,1-dioxidothietan-3-yl)-1H-indazole-6-carboxamide]",0.001
7,"CC(C)n1nc(-c2cccc(OC(F)F)c2)c2ccc(C(=O)NC3(C)CS(=O)(=O)C3)c(F)c21 [Example 34, 3-(3-(difluoromethoxy)phenyl)-7-fluoro-1-isopropyl-N-(3-methyl-1,1-dioxidothietan-3-yl)-1H-indazole-6-carboxamide]",0.0052
8,"Cc1ncc(OC(F)F)cc1-c1nn(C(C)C)c2cc(C(=O)NC3(C)CS(=O)(=O)C3)ncc12 [Example 35, 3-(5-(difluoromethoxy)-2-methylpyridin-3-yl)-1-isopropyl-N-(3-methyl-1,1-dioxidothietan-3-yl)-1H-pyrazolo[4,3-c]pyridine-6-carboxamide]",0.285
9,"CC(C)n1nc(-c2cc(OC(F)F)ccc2F)c2cnc(C(=O)NC3(C)CS(=O)(=O)C3)cc21 [Example 36, 3-(5-(difluoromethoxy)-2-fluorophenyl)-1-isopropyl-N-(3-methyl-1,1-dioxidothietan-3-yl)-1H-pyrazolo[4,3-c]pyridine-6-carboxamide]",0.0017
10,"CC(C)n1nc(-c2cccc(OC(F)F)c2)c2ncc(C(=O)N[C@]3(C#N)CCOC3)cc21 [Example 38, N-[(3S)-3-cyanotetrahydrofuran-3-yl]-3-[3-(difluoromethoxy)phenyl]-1-isopropyl-pyrazolo[4,3-b]pyridine-6-carboxamide]",0.011
11,"CC(C)n1nc(-c2cccc(OC(F)F)c2)c2ncc(C(=O)N[C@H]3CCCC[C@@H]3O)cc21 [Example 40, 3-[3-(difluoromethoxy)phenyl]-N-[(1S,2S)-2-hydroxycyclohexyl]-1-isopropyl-pyrazolo[4,3-b]pyridine-6-carboxamide]",0.017
12,"CC(C)n1nc(-c2cccc(OC(F)F)c2)c2ncc(C(=O)N[C@@H]3CCC[C@H]3N3CCOCC3)cc21 [Example 41, 3-[3-(difluoromethoxy)phenyl]-1-isopropyl-N-[(1R,2R)-2-morpholinocyclopentyl]pyrazolo[4,3-b]pyridine-6-carboxamide]",0.072
13,"CC(C)n1nc(-c2cccc(OC(F)F)c2)c2ncc(C(=O)NC(C)(C)C(C)(C)O)cc21 [Example 43, 3-(3-(difluoromethoxy)phenyl)-N-(3-hydroxy-2,3-dimethylbutan-2-yl)-1-isopropyl-1H-pyrazolo[4,3-b]pyridine-6-carboxamide]",0.148
14,"CC(C)n1nc(-c2cccc(OC(F)F)c2)c2ncc(C(=O)N[C@H]3CCC[C@H]3O)cc21 [Example 44, 3-(3-(difluoromethoxy)phenyl)-N-((1S,2R)-2-hydroxycydopentyl)-1-isopropyl-1H-pyrazolo[4,3-b]pyridine-6-carboxamide]",0.064
15,"CC(O)C(C)NC(=O)c1cnc2c(-c3cccc(OC(F)F)c3)nn(C(C)C)c2c1 (stereo not shown) [Example 45a, 3-(3-(difluoromethoxy)phenyl)-N-(3-hydroxybutan-2-yl)-1-isopropyl-1H-pyrazolo[4,3-b]pyridme-6-carboxamide]",0.023
16,"CC(C)n1nc(-c2cccc(OC(F)F)c2)c2ncc(C(=O)NC3(CO)CCC3)cc21 [Example 49, 3-(3-(difluoromethoxy)phenyl)-N-(1-(hydroxymethyl)cyclobutyl)-1-isopropyl-1H-pyrazolo[4,3-b]pyridine-6-carboxamide]",0.0061
17,"CC(C)n1nc(-c2cccc(OC(F)F)c2)c2ncc(C(=O)NC3(CO)CC(F)(F)C3)cc21 [Example 51, N-(3,3-difluoro-1-(hydroxymethyl)cyclobutyl)-3-(3-(difluoromethoxy)phenyl)-1-isopropyl-1H-pyrazolo[4,3-b]pyridine-6-carboxamide]",0.017
18,"CC(C)[C@H](NC(=O)c1cnc2c(-c3cncc(OC(F)F)c3)nn(C(C)C)c2c1)[C@H](C)O [Example 54, 3-(5-(difluoromethoxy)pyridin-3-yl)-N-((2S,3S)-2-hydroxy-4-methylpentan-3-yl)-1-isopropyl-1H-pyrazolo[4,3-b]pyridine-6-carboxamide]",0.013
19,"CC(C)n1nc(-c2cc(OC(F)F)ccc2F)c2ncc(C(=O)NC(C)(C)CN(C)C)cc21 [Example 55, 3-(5-(difluoromethoxy)-2-fluorophenyl)-N-(1-(dimethylamino)-2-methylpropan-2-yl)-1-isopropyl-1H-pyrazolo[4,3-b]pyridine-6-carboxamide]",0.212
20,"Cc1ncc(OC(F)F)cc1-c1nn(C(C)C)c2cc(C(=O)N[C@]3(C)CS(=O)(=O)C[C@H]3O)cnc12 [Example 56, 3-(5-(difluoromethoxy)-2-methylpyridin-3-yl)-N-((3S,4S)-4-hydroxy-3-methyl-1,1-dioxidotetrahydrothiophen-3-yl)-1-isopropyl-1H-pyrazolo[4,3-b]pyridine-6-carboxamide]",0.209
21,"CCOc1cc(-c2nn(C(C)C)c3cc(C(=O)N[C@@]4(C)CCC[C@H]4O)cnc23)c(F)cn1 [Example 57, 3-(2-ethoxy-5-fluoropyridin-4-yl)-N-((1S,2R)-2-hydroxy-1-methylcyclopentyl)-1-isopropyl-1H-pyrazolo[4,3-b]pyridine-6-carboxamide]",0.015
22,"CCN1CCN(C(=O)c2cnc3c(-c4cncc(OC(F)F)c4)nn(C(C)C)c3c2)CC1 [Example 58, (3-(5-(difluoromethoxy)pyridin-3-yl)-1-isopropyl-1H-pyrazolo[4,3-b]pyridin-6-yl)(4-ethylpiperazin-1-yl)methanone]",> 1
